Test results: patent US12686692B2, “KRas G12D inhibitors” (Mirati Therapeutics, Inc., priority 2020, dated 2026)

Assays:
KRas G12D [1] = target: T1, KRas G12D (Homo sapiens, UniProt P01116, G12D); experiment: KRas G12D Surface Plasmon Resonance (SPR) Binding Assay; details: Biacore T200, biotinylated Avidin-tagged KRAS protein on SA chip, 20 C, 1:1 binding model
Experimental: This Example illustrates that exemplary compounds of the present invention bind to KRas G12D as measured by surface plasmon resonance (SPR). Briefly, 1 L of 1.05×HBS-Mg buffer (262.5 mM BioUltra Hepes, pH 7.5, 157.5 mM NaCl, 105 mM MgCl2, 0.525 mM TCEP, […] Brij-35) was prepared and filter sterilized using a 0.22 μm bottle top filter. Approximately 50 mL of 1.05×HBS-Mg buffer was removed and saved for future dilutions. A 50 mL aliquot of DMSO (Sigma Aldrich DMSO Lot. #SHBK2079) was added and continued to stir for 10 minutes, creating the final 1.0×HBS-Mg buffer (250 mM BioUltra Hepes pH 7.5, 150 mM NaCl, 100 mM MgCl2, 0.5 mM TCEP, 0.03% Brij-35). Biacore T200 instrument was primed using 1.0×HBS-Mg buffer before docking a GE Streptavidin (SA) chip and then primed two additional times prior to beginning the immobilization step. All immobilized protein mixtures were created using 3-5 mg/mL Biotinylated Avidin-tagged KRAS protein using the following immobilization settings: SA chip type, 1 flow cells per cycle, 720 second contact time, and 5 μL/min flow rate. Normalization of the detector was also performed during the immobilization step using the GE BiaNormalize solution. All compounds were diluted to 10 mM in 100% DMSO prior to being diluted 20× in 1.05× buffer. Another 10× dilution was created using 1.0× buffer prior to performing a series of 3× dilutions to create a compound concentration curve using the following assay settings: 20 C analysis temperature, General Settings=10 Hz data collection rate and multi-detection; Assay Steps=all set to LMW kinetics; Cycle Types=LMW kinetics (60s contact time, 120s dissociation time, 100 μL/min flow rate, extra wash after injection with 50% DMSO, flow path 1,2,3,4); Flow path detection=2-1, 4-3). Data evaluation was performed using the Biacore T200 Evaluation software and data fit to 1:1 binding model.
Target sequence in this assay (P01116 1-188 isoform P01116-2 G12D): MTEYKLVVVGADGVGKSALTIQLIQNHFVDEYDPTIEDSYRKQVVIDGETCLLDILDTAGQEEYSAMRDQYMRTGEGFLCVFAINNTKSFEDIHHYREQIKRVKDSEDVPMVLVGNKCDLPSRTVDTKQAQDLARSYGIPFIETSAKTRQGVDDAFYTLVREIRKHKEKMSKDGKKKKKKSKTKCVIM

KRas G12D [2] = target: T1, KRas G12D; experiment: KRas G12D Binding Assay (TR-FRET displacement of labeled tracer); parameters: corresponding to amino acids 1:169, produced at Array BioPharma; biotin (protein is biotinylated); details: TR-FRET displacement of Cy5 labelled tracer, biotinylated GDP-loaded KRAS G12D (aa 1:169), 60 minute incubation at 22° C.
Method in brief: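 Biotinylated GDP-loaded human KRAS G12D (aa 1–169) incubated with Cy5 tracer, Eu-streptavidin and compound (2% DMSO final) in 50 mM HEPES pH 7.5, 5 mM MgCl2, 0.005% Tween-20, 1 mM DTT, 60 min at 22 °C. TR-FRET ratio converted to percent of control; IC50 at 50 POC from 4-parameter logistic fit.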
Target sequence in this assay (P01116 1-169 isoform P01116-2 G12D): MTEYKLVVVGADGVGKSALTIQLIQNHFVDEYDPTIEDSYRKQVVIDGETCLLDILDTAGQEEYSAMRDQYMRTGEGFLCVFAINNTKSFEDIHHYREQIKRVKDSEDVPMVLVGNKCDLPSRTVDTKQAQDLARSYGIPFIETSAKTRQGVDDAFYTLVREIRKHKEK

SMILES	Kd (KRas G12D [1])	IC50 (KRas G12D [2])
CN1CCC[C@H]1COc1nc2c(c(N3C[C@H]4C/C(=C/C#N)[C@@H](C3)N4)n1)CCN(c1cccc3cccc(Cl)c13)C2 (single isomer, unassigned) [Example 90]	0.938 µM	1.46 µM
CN1CCC[C@H]1COc1nc2c(c(N3C[C@H]4CC[C@@H](C3)N4)n1)CCN(c1nc(N)nc3ccccc13)C2 [Example 59, 4-(4-((1R,5S)-3,8-diazabicyclo[3.2.1]octan-3-yl)-2-(((S)-1-methylpyrrolidin-2-yl)methoxy)-5,8-dihydropyrido[3,4-d]pyrimidin-7(6H)-yl)quinazolin-2-amine]	598 µM	7.5 µM
CN1CCC[C@H]1COc1nc2c(c(N3C[C@H]4CC[C@@H](C3)N4)n1)CCN(c1cccc3ccccc13)C2 [Example 70, 4-((1R,5S)-3,8-diazabicyclo[3.2.1]octan-3-yl)-2-(((S)-1-methylpyrrolidin-2-yl)methoxy)-7-(naphthalen-1-yl)-5,6,7,8-tetrahydropyrido[3,4-d]pyrimidine]	2.1 µM	1.12 µM
CN1CCC[C@H]1COc1nc2c(c(N3C[C@H]4CC[C@@H](C3)N4)n1)CCN(c1cccc3c1CCCC3)C2 [Example 71, 4-((1R,5S)-3,8-diazabicyclo[3.2.1]octan-3-yl)-2-(((S)-1-methylpyrrolidin-2-yl)methoxy)-7-(5,6,7,8-tetrahydronaphthalen-1-yl)-5,6,7,8-tetrahydropyrido[3,4-d]pyrimidine]	4.22 µM	1.78 µM
CN1CCC[C@H]1COc1nc2c(c(N3C[C@H]4CC[C@@H](C3)N4)n1)CCN(c1c(O)cccc1F)C2 [Example 77, 2-(4-((1R,5S)-3,8-diazabicyclo[3.2.1]octan-3-yl)-2-(((S)-1-methylpyrrolidin-2-yl)methoxy)-5,8-dihydropyrido[3,4-d]pyrimidin-7(6H)-yl)-3-fluorophenol]	264 µM	> 10 µM
O[C@@H]1C[C@@H]2CN(c3nc(OCCC(F)(F)F)nc4c3CCN(c3cccc5cccc(Cl)c35)C4)C[C@H]1N2 [Example 86, (1R,5R,6R)-3-(7-(8-chloronaphthalen-1-yl)-2-(3,3,3-trifluoropropoxy)-5,6,7,8-tetrahydropyrido[3,4-d]pyrimidin-4-yl)-3,8-diazabicyclo[3.2.1]octan-6-ol]	33.2 µM	2.9 µM
CC1CCCc2cccc(N3CCc4c(nc(OC[C@@H]5CCCN5C)nc4N4C[C@H]5CC[C@@H](C4)N5)C3)c21 (stereo partly drawn) [Example 82, 4-((1R,5S)-3,8-diazabicyclo[3.2.1]octan-3-yl)-7-(8-methyl-5,6,7,8-tetrahydronaphthalen-1-yl)-2-(((S)-1-methylpyrrolidin-2-yl)methoxy)-5,6,7,8-tetrahydropyrido[3,4-d]pyrimidine]	0.149 µM	0.061 µM
CN1CCC[C@H]1COc1nc2c(c(N3C[C@H]4CC[C@@H](C3)N4)n1)CC(=O)N(Cc1ccccc1)C2 [Example 53, 7-benzyl-4-((1R,5S)-3,8-diazabicyclo[3.2.1]octan-3-yl)-2-(((S)-1-methylpyrrolidin-2-yl)methoxy)-7,8-dihydropyrido[3,4-d]pyrimidin-6(5H)-one]	> 1000 µM	5.26 µM
CN1CCC[C@H]1COc1nc2c(c(N3C[C@H]4CC[C@@H](C3)N4)n1)CCN(c1ccc(Br)c3cccc(Cl)c13)C2 [Example 74, 4-((1R,5S)-3,8-diazabicyclo[3.2.1]octan-3-yl)-7-(4-bromo-8-chloronaphthalen-1-yl)-2-(((S)-1-methylpyrrolidin-2-yl)methoxy)-5,6,7,8-tetrahydropyrido[3,4-d]pyrimidine]	41.6 µM	> 10 µM
CN1CCC[C@H]1COc1nc2c(c(N3C[C@H]4C/C(=C\C#N)[C@@H](C3)N4)n1)CCN(c1cccc3cccc(Cl)c13)C2 (single isomer, unassigned) [Example 89]	27.1 µM	> 10 µM
Cc1ccc2[nH]ncc2c1N1CCc2c(nc(OC[C@@H]3CCCN3C)nc2N2C[C@H]3CC[C@@H](C2)N3)C1 [Example 3, 4-((1R,5S)-3,8-diazabicyclo[3.2.1]octan-3-yl)-7-(5-methyl-1H-indazol-4-yl)-2-(((S)-1-methylpyrrolidin-2-yl)methoxy)-5,6,7,8-tetrahydropyrido[3,4-d]pyrimidine]	6.37 µM	1.32 µM
CN1CCC[C@H]1COc1nc2c(c(N3C[C@H]4CC[C@@H](C3)N4)n1)CCN(c1c(O)ccc3ccccc13)C2 [Example 78, 1-(4-((1R,5S)-3,8-diazabicyclo[3.2.1]octan-3-yl)-2-(((S)-1-methylpyrrolidin-2-yl)methoxy)-5,8-dihydropyrido[3,4-d]pyrimidin-7(6H)-yl)naphthalen-2-ol]	51.4 µM	> 10 µM
CN1CCC[C@H]1COc1nc2c(c(N3C[C@H]4CC[C@@H](C3)N4)n1)CCN(c1cncc3ccccc13)C2 [Example 57, 4-((1R,5S)-3,8-diazabicyclo[3.2.1]octan-3-yl)-7-(isoquinolin-4-yl)-2-(((S)-1-methylpyrrolidin-2-yl)methoxy)-5,6,7,8-tetrahydropyrido[3,4-d]pyrimidine]	98.5 µM	> 10 µM
COc1nc2c(c(N3C[C@H]4CC[C@@H](C3)N4)n1)CCN(c1cccc3cccc(C)c13)C2 [Example 22, 4-((1R,5S)-3,8-diazabicyclo[3.2.1]octan-3-yl)-2-methoxy-7-(8-methylnaphthalen-1-yl)-5,6,7,8-tetrahydropyrido[3,4-d]pyrimidine]	302 µM	7.86 µM
CN1CCC[C@H]1COc1nc2c(c(N3C[C@H]4CC[C@@H](C3)N4)n1)CCN(c1cccc3cccc(CCCO)c13)C2 [Example 79, 3-(8-(4-((1R,5S)-3,8-diazabicyclo[3.2.1]octan-3-yl)-2-(((S)-1-methylpyrrolidin-2-yl)methoxy)-5,8-dihydropyrido[3,4-d]pyrimidin-7(6H)-yl)naphthalen-1-yl)propan-1-ol]	1.86 µM	0.486 µM
CN1CCC[C@H]1COc1nc2c(c(N3C[C@H]4CC[C@@H](C3)N4)n1)CCN(c1cccc3cccc(CCCC#N)c13)C2 [Example 83, 4-(8-(4-((1R,5S)-3,8-diazabicyclo[3.2.1]octan-3-yl)-2-(((S)-1-methylpyrrolidin-2-yl)methoxy)-5,8-dihydropyrido[3,4-d]pyrimidin-7(6H)-yl)naphthalen-1-yl)butanenitrile]	19.9 µM	6.57 µM
CN1CCC[C@H]1COc1nc2c(c(N3C[C@H]4CC[C@@H](C3)N4)n1)CCN(c1cccc3cccc(F)c13)C2 [Example 73, 4-((1R,5S)-3,8-diazabicyclo[3.2.1]octan-3-yl)-7-(8-fluoronaphthalen-1-yl)-2-(((S)-1-methylpyrrolidin-2-yl)methoxy)-5,6,7,8-tetrahydropyrido[3,4-d]pyrimidine]	3.16 µM	1.1 µM
COC1CC(N2CCc3c(nc(OC[C@@H]4CCCN4C)nc3N3C[C@H]4CC[C@@H](C3)N4)C2)c2ccccc21 (stereo partly drawn) [Example 36, 4-((1R,5S)-3,8-diazabicyclo[3.2.1]octan-3-yl)-7-(3-methoxy-2,3-dihydro-1H-inden-1-yl)-2-(((S)-1-methylpyrrolidin-2-yl)methoxy)-5,6,7,8-tetrahydropyrido[3,4-d]pyrimidine]	24.3 µM	> 10 µM
CN1CCC[C@H]1COc1nc2c(c(N3C[C@H]4CC[C@@H](C3)N4)n1)CCN(C1CC(O)c3ccccc31)C2 (stereo partly drawn) [Example 35, 3-(4-((1R,5S)-3,8-diazabicyclo[3.2.1]octan-3-yl)-2-(((S)-1-methylpyrrolidin-2-yl)methoxy)-5,8-dihydropyrido[3,4-d]pyrimidin-7(6H)-yl)-2,3-dihydro-1H-inden-1-ol]	570 µM	> 10 µM
Cc1ccc2cccc(N3CCc4c(nc(OC[C@@H]5CCCN5C)nc4N4C[C@H]5CC[C@@H](C4)N5)C3)c2c1 [Example 110, 4-((1R,5S)-3,8-diazabicyclo[3.2.1]octan-3-yl)-7-(7-methylnaphthalen-1-yl)-2-(((S)-1-methylpyrrolidin-2-yl)methoxy)-5,6,7,8-tetrahydropyrido[3,4-d]pyrimidine]	3.23 µM	3.17 µM
